Measurements taken from patent US20080027143A1, “CHEMICAL FORMULATION FOR AN INSECTICIDE” (priority 2006, published 2008).

Assays:
Format in all cases: physicochemical
[1] = Release rate and evaporation loss from piezoelectric diffusion device (Table 5); details: for Evaporation Loss: OFF switch position, average of 30 hours; for Evaporation Loss / Release Rate in High Setting: 3 repetitions; for Release Rate in High Setting: ON, high switch setting, average of 13 hours
Excerpt: A highly permeable wick is used in the diffusion device 20 to ensure easy and effective transfer of the liquid from the tip of the wick to the orifice plate 110. In addition, the plug and wick holder 72 that is fitted to the reservoir 50 includes two small orifices to enable equilibration of pressure between the headspace in the reservoir and the surrounding atmosphere. These design factors lead to slow evaporation of the solvent regardless of where the device 20 is switched on or off. Solvents with high volatility tend to evaporate more rapidly leading to concentration of the insecticide in the reservoir 50. This increases the viscosity of the formula and slows down the overall release rates, leading to a negative impact on product performance. […] [table]

[2] = Release rates over 14 days for solvents with different boiling point ranges (Table 7)
Excerpt: The effect of solvents with different boiling point ranges on release rates were studied and the results are show in the following Table 7: [table]

Viscosity of solvent = details: at 25 deg. C.
Experimental: Referring again to Table 5, release rates of 8.0 wt %/wt % Transfluthrin in solvent are strongly correlated to viscosity of solvent. A solvent viscosity of less than or substantially equal to about 4 centistokes (cSt) at 25 Celsius is preferred as release rates stay above 5 mg/hr. Release rates lower than 5 mg/hr require much higher concentration of insecticide (higher insecticidal concentrations lead to thickening of the formula which may become unacceptable to delivery via piezoelectric delivery systems). A solvent viscosity of less than or substantially equal to about 3 cSt is more preferred as this enables the insecticidal concentration(s) to be kept below 10%.

[3] = Storage stability of insecticide in solvent
Excerpt: Stability data determined using analytical tools are given below:

[4] = With 8.0 wt %/wt % Transfluthrin in Solvent

**Q.** Which results are given for `CCCOCC(C)O` (stereo not shown) [DOWANOL ® PnP]?
**A.** Evaporation Loss as Percent of Release Rate [1, 4]: 73.1%; Evaporation Loss [1, 4]: 16.05 mg/h; Release Rate in High Setting [1, 4]: 22.0 mg/h; Evaporation Loss as Percent of Release Rate ([1]; With Pure Solvent): 38.4%; Evaporation Loss ([1]; With Pure Solvent): 9.73 mg/h; Release Rate in High Setting ([1]; With Pure Solvent): 25.3 mg/h; Residual Liquid ([2]; after the 14 days): Zero; Average Release Rate during 1–5 days ([2]; high setting, average period of 7.1 hours per day, days 1–5): 19.1 mg/h; Average Release Rate during 6–10 days ([2]; high setting, average period of 7.1 hours per day, days 6–10): 18.0 mg/h; Average Release Rate during 11–14 days ([2]; high setting, average period of 7.1 hours per day, days 11–14): 10.0 mg/h; Viscosity of Solvent (Viscosity of solvent): 2.7 cSt

**Q.** For `C/C=C/C1C(C(=O)OCc2c(F)c(F)c(COC)c(F)c2F)C1(C)C` (stereo not shown) [Metofluthrin], which “Stability in hydrocarbon solvents (conclusion)” value [3] is on record?
**A.** Its value is “stable”.

**Q.** For `CC1(C)[C@H](C=C(Cl)Cl)[C@H]1C(=O)OCc1c(F)c(F)cc(F)c1F` [Transfluthrin], which “Stability in hydrocarbon solvents (conclusion)” value [3] is on record?
**A.** The value was “stable”.
